Source: US8833306B2, “PACAP for aquatic organism culture” (priority 2005, dated 2014)
No end group written: not given here.

Columns and labels:
[1] = system: tilapia Oreochromis niloticus; assay: Effect of recombinant PACAP on juvenile tilapia appetite (ingested food); type: in vivo; conditions: i.p. 0.1 μg/g; 6 hours and 22 hours; p<0.05
Method: To analyze the effect of the PACAP in the fish appetite, we used tilapia of the Oreochromis niloticus species, without sex distinction and approximately the same average body weight. Three experimental groups were formed having 3 individuals in each and 3 replicates per group. The groups were acclimated in separated tanks with stable water recirculation, to a temperature of 28° C. and with the photoperiod of 14 hours light and 10 hours dark. […] The second group was treated with the GHRP-6 (Lipotec, S.A, Spain) by the same administration via at the dose of 0.1 μg of the peptide by gram of the animal corporal weight. The control group was treated with E. coli proteins contained in PBS 1× (E. coli proteins were obtained by the same purification procedure of the interest peptide, with the amount equivalent of the contaminants presents in the purified PACAP sample). After the treatments, the same amount of food was added to the three experimental groups, collecting the non ingested food in 6 hour and adding food again. The appetite was measured again, 22 hours from the beginning of the experiment. The food not ingested in each tank was dried in the stove (100° C., during 24 h) and was weighed in an analytical balance. The ingested food was calculated determining the difference between the food added to the tanks (10 grams, with a 20% of humidity) and the food not ingested by the fish.

[2] = system: juvenile Clarias gariepinus; assay: Growth stimulation in Clarias gariepinus by recombinant PACAP in the fish diet; type: in vivo; conditions: in the diet at 5 mg/Kg of feed; 30 days; p<0.01
Method: The Pichia pastoris culture supernatant containing the recombinant PACAP (SEQ ID No. 14) was concentrated and formulated in the nutritional fish diet to a concentration of approximately 5 mg/Kg of feed. Two experimental groups were formed having 100 larvae in each with an average body weight of 0.1 g. One group was treated with recombinant PACAP (SEQ ID No. 14) containing in P. pastoris culture supernatants and the other used as a control group was treated with non-transformed P. pastoris culture supernatant. The experiment was carried out during 30 days.

Substance	appetite (ingested food) compared with control group [1]	growth increase compared with control group [2] [%]
GHRP-6	significant appetite increase	
PACAP (SEQ ID No. 14): Clarias gariepinus recombinant PACAP variant contained in P. pastoris culture supernatants; used in Examples 6-8 (HSDGIFTDSYSRYRKQMAVKKYLAAVLGRRYRQRFRNK; ends and bridges not checked; listed as Clarias gariepinus)		30
